From ChEMBL document CHEMBL1142857, “A new class of high affinity thyromimetics containing a phenyl-naphthylene core” (Bioorg Med Chem Lett, 2005)

What was measured:
[1] = target: T1, Thyroid hormone receptor alpha (Homo sapiens, UniProt P10827)
T1 sequence (P10827 whole entry): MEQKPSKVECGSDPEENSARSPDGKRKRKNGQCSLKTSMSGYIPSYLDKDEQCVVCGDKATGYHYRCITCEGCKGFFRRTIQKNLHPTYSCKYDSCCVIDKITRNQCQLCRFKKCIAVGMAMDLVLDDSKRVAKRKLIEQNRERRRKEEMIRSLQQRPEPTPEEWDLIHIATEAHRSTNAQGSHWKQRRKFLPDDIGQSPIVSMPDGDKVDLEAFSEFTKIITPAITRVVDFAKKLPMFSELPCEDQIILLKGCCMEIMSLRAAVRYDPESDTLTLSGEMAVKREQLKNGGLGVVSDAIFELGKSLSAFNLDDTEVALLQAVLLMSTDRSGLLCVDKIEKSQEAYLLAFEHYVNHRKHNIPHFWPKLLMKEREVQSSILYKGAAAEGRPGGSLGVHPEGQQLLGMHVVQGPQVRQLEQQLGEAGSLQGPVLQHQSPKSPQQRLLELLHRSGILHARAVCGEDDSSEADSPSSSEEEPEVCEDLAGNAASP

[2] = target: T2, Thyroid hormone receptor beta (Homo sapiens, UniProt P10828)
T2 sequence (P10828 whole entry): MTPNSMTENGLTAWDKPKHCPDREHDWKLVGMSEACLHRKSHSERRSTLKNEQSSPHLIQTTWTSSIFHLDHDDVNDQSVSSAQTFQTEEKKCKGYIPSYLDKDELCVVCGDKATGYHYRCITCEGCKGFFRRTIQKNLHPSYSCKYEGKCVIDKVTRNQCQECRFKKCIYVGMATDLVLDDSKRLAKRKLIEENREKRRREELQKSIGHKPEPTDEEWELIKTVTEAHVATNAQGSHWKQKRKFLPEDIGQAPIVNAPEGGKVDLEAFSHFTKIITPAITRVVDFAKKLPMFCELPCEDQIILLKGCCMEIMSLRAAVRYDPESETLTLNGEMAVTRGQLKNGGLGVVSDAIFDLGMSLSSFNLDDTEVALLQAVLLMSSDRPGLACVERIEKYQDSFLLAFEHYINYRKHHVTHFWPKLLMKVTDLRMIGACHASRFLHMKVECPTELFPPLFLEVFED
Description: Inhibitory concentration against cloned human thyroid hormone receptor beta 1

[3] = target: T1, Thyroid hormone receptor alpha; experiment: Inhibitory concentration against cloned human thyroid hormone receptor alpha 1

Question: How did the IC50 [1] turn out when `O=C(O)Cc1cc(Cl)c(-c2cccc3c(Br)c(O)ccc23)c(Cl)c1` was run?
Answer: 101 nM

Question: And the IC50 [2]?
Answer: 13 nM

Question: With `O=C(O)Cc1cc(Cl)c(Oc2ccc(O)c(Br)c2)c(Cl)c1` as the compound, how does the IC50 [1] read?
Answer: 109 nM

Question: And the IC50 [2]?
Answer: 9 nM

Question: What does the source list for `O=C(O)Nc1cc(Cl)c(-c2cccc3c(-c4ccccc4)c(O)ccc23)c(Cl)c1`?
Answer: IC50 [1]: 125 nM; IC50 [2]: 29 nM

Question: With `O=C(O)CNc1cc(Cl)c(-c2cccc3c(Br)c(O)ccc23)c(Cl)c1` as the compound, how does the IC50 [1] read?
Answer: 19 nM

Question: And the IC50 [2]?
Answer: 1.8 nM

Question: Which results are given for `O=C(O)CCC(=O)Nc1cc(Cl)c(-c2cccc3c(Br)c(O)ccc23)c(Cl)c1`?
Answer: IC50 [1]: 62 nM; IC50 [2]: 22 nM

Question: `O=C(O)CCNc1cc(Cl)c(-c2cccc3c(Br)c(O)ccc23)c(Cl)c1` was tested. Which IC50 [1] did it give?
Answer: 13 nM

Question: What about the IC50 [2] of the same compound?
Answer: 1.8 nM

Question: Which results are given for `Cc1c(O)ccc2c(-c3c(Cl)cc(NC(=O)O)cc3Cl)cccc12`?
Answer: IC50 [1]: 48 nM; IC50 [2]: 7.2 nM

Question: How did the IC50 [1] turn out when `O=C(O)CC(=O)Nc1cc(Cl)c(-c2cccc3c(Br)c(O)ccc23)c(Cl)c1` was run?
Answer: 4.3 nM

Question: What about the IC50 [2] of the same compound?
Answer: 0.3 nM

Question: Which IC50 [1] does the source give for `O=C(O)C(=O)Nc1cc(Cl)c(-c2cccc3c(Br)c(O)ccc23)c(Cl)c1` here?
Answer: 5.4 nM

Question: And the IC50 [2]?
Answer: 0.3 nM

Question: With `O=C(O)Cc1cc(Cl)c(Oc2ccc(O)cc2)c(Cl)c1` as the compound, how does the IC50 [1] read?
Answer: 3600 nM

Question: What about the IC50 [2] of the same compound?
Answer: 2140 nM

Question: What does the source list for `COc1ccc2c(-c3c(Cl)cc(NC(=O)CC(=O)O)cc3Cl)cccc2c1C(C)C`?
Answer: IC50 [1]: 14 nM; IC50 [2]: 0.3 nM

Question: `O=C(O)Cc1cc(Cl)c(-c2cccc3cc(O)ccc23)c(Cl)c1` was tested. Which IC50 [3] did it give?
Answer: 1540 nM

Question: What about the IC50 [2] of the same compound?
Answer: 545 nM
